Data on 13 compounds can be found in ChEMBL document CHEMBL3112510, “Optimization, pharmacophore modeling and 3D-QSAR studies of sipholanes as breast cancer migration and proliferation inhibitors” (Eur J Med Chem, 2014).

The structures appear in SMILES notation. A value given as a limit tells only on which side of the number the result lay.

Experiment [1] has as its system MDA-MB-231. Put plainly: Antimigratory activity in human MDA-MB-231 cells after 24 hrs by wound healing assay. The settings on record: MDA-MB-231, 24 h.
The test system of a further experiment is MCF7. In words: cells. The settings on record: Homo sapiens, MCF7, 72 h.
Experiment [2] has as its system MDA-MB-231. In words: Antiproliferative activity against human MDA-MB-231 cells after 72 hrs by MTT assay. Particulars: MDA-MB-231, 72 h. A general note: Tetrazolium dyes change colour on reduction, which living cells bring about.

For `CC1(C)O[C@H]2CC[C@@](C)(O)[C@@H](CC[C@@H]3C(CO)=CC[C@H]4[C@H](CC[C@]4(C)O)C3(C)C)[C@]2(C)CC[C@@H]1O`, the IC50 is greater than 50 µM with MDA-MB-231 [1], 87.5 µM with MDA-MB-231 [1] (read-out: pIC50 (converted)), greater than 50 µM in the experiment with MCF7 and greater than 50 µM with MDA-MB-231 [2].

In the case of `CC1=CC[C@H]2[C@@H]1CC=C(C)[C@@H](CC[C@H]1[C@]3(C)CC[C@H](OCc4ccccc4)C(C)(C)O[C@H]3CC[C@@]1(C)O)C2(C)C`, the IC50 is 13.4 µM with MDA-MB-231 [1], 13.4 µM in the experiment with MDA-MB-231 [1] (read-out: pIC50 (converted)), greater than 50 µM with MCF7 and 35.7 µM in the experiment on MDA-MB-231 [2].

For the compound `CC1=CC[C@H]2[C@@H]1CC=C(C)[C@@H](CC[C@H]1[C@]3(C)CC[C@H](OC(=O)c4ccc(Cl)cc4)C(C)(C)O[C@H]3CC[C@@]1(C)O)C2(C)C`, the IC50 in the experiment on MDA-MB-231 [1] came to 5.9 µM; with MCF7 it was 22 µM; with MDA-MB-231 [2], 12.7 µM.

For `CC1=CC[C@H]2[C@H](CC[C@]2(C)O)C(C)(C)[C@@H]1CC[C@H]1[C@]2(C)CC[C@H](OC(=O)NS(=O)(=O)c3ccc(C)cc3)C(C)(C)O[C@H]2CC[C@@]1(C)O`, the IC50 in the experiment on MDA-MB-231 [1] is 18 µM; in the experiment on MCF7, greater than 50 µM; with MDA-MB-231 [2], 47.1 µM.

Turning to `CC1(C)O[C@H]2CC[C@@](C)(O)[C@@H](CC[C@H]3C(C)(C)[C@@]4(O)CC[C@](C)(O)[C@H]4C[C@H]4O[C@]43C)[C@]2(C)CCC1=O`, the IC50 in the experiment with MDA-MB-231 [1] is 33 µM; in the experiment with MDA-MB-231 [1] (read-out: pIC50 (converted)), 33 µM; in the experiment on MCF7, greater than 50 µM; in the experiment on MDA-MB-231 [2] it was greater than 50 µM.

As to `CC1=C(CC[C@H]2[C@]3(C)CC[C@H](O)C(C)(C)O[C@H]3CC[C@@]2(C)O)[C@](C)(C/C=C/C(C)(C)O)[C@H](O)CC1`, the IC50 in the experiment on MDA-MB-231 [1] was greater than 50 µM; with MDA-MB-231 [1] (read-out: pIC50 (converted)) it was 59 µM; in the experiment with MCF7, 21.8 µM; with MDA-MB-231 [2], greater than 50 µM.

Turning to `C[C@H]1C(=O)C[C@H]2[C@H](CC[C@]2(C)O)C(C)(C)[C@@H]1CC[C@H]1[C@]2(C)CC[C@H](O)C(C)(C)O[C@H]2CC[C@@]1(C)O`, the IC50 in the experiment with MDA-MB-231 [1] was 47.5 µM; in the experiment on MDA-MB-231 [1] (read-out: pIC50 (converted)), 47.5 µM; in the experiment with MCF7, greater than 50 µM; in the experiment with MDA-MB-231 [2], greater than 50 µM.

Turning to `CC1=C(CC[C@H]2[C@]3(C)CC[C@H](O)C(C)(C)O[C@H]3CC[C@@]2(C)O)[C@@H]2[C@H](CC1=O)[C@@](C)(O)CCC2(C)C`, the IC50 was greater than 50 µM in the experiment on MDA-MB-231 [1], 84.9 µM in the experiment on MDA-MB-231 [1] (read-out: pIC50 (converted)), greater than 50 µM with MCF7 and greater than 50 µM with MDA-MB-231 [2].

Turning to `CC1=CCC2C(CC[C@@]2(C)O)C(C)(C)C1CC[C@@H]1[C@@]2(C)CCC(=O)C(C)(C)O[C@@H]2CC[C@]1(C)O` (some centres undefined) [SIPHOLENONE A], the IC50 was 28.1 µM in the experiment with MDA-MB-231 [1], 28.1 µM in the experiment with MDA-MB-231 [1] (read-out: pIC50 (converted)), greater than 50 µM in the experiment with MCF7 and greater than 50 µM in the experiment on MDA-MB-231 [2].

Regarding `CC1=CC[C@H]2[C@H](CC[C@]2(C)O)C(C)(C)[C@@H]1CC[C@H]1[C@]2(C)CC/C(=N/OCc3ccccc3)C(C)(C)O[C@H]2CC[C@@]1(C)O`, the IC50 is 31.4 µM in the experiment on MDA-MB-231 [1], 31.4 µM in the experiment with MDA-MB-231 [1] (read-out: pIC50 (converted)), greater than 50 µM in the experiment with MCF7 and 38.2 µM in the experiment on MDA-MB-231 [2].

With `CC1=CC[C@H]2[C@H](CC[C@]2(C)O)C(C)(C)[C@@H]1CC[C@@H]1[C@](C)(O)[C@H](O)C[C@@H]2OC(C)(C)[C@@H](O)CC[C@]21C`, the IC50 in the experiment on MDA-MB-231 [1] was greater than 50 µM; in the experiment on MDA-MB-231 [1] (read-out: pIC50 (converted)), 22.4 µM; in the experiment with MCF7, greater than 50 µM; with MDA-MB-231 [2], greater than 50 µM.

For the compound `CC(C)=CCC[C@@]1(C)C(CC[C@H]2[C@]3(C)CC[C@H](O)C(C)(C)O[C@H]3CC[C@@]2(C)O)=C(C)CC[C@H]1O` [SIPHONELLINOL D], the IC50 in the experiment on MDA-MB-231 [1] is greater than 50 µM; in the experiment on MDA-MB-231 [1] (read-out: pIC50 (converted)), 67.3 µM; in the experiment on MCF7, greater than 50 µM; in the experiment with MDA-MB-231 [2], greater than 50 µM.

Regarding `CC(=O)O[C@H]1CC[C@]2(C)[C@H](CC[C@@](C)(O)[C@H]2CC[C@@H]2C(C)=CC[C@H]3[C@H](CC[C@]3(C)O)C2(C)C)OC1(C)C`, the IC50 in the experiment on MDA-MB-231 [1] is 16.8 µM; in the experiment with MCF7, 47.9 µM; in the experiment with MDA-MB-231 [2], 38 µM.
